Entries after “also recorded” stand apart in the source; their conditions may differ.
Assays:
[1] = test system: defense gene expression in excised Arabidopsis leaves; assay: Excised-leaf assay, semi-quantitative RT-PCR of gene expression; assay type: in vivo, Arabidopsis thaliana
Experimental: Excised-leaf assays. AtPep1 peptide dissolved in double distilled water was supplied to excised leaves of 3 to 4 week old Arabidopsis plants. Leaves were excised and the petioles were immersed in 800 μL centrifuge tubes containing either the peptide solution or distilled water, and placed in a closed clear plexiglass box containing a thin layer of water for humidity, and a small opening to allow air to enter. Boxes were incubated in a growth chamber under the plant growth conditions described above and sprayed with a fine mist of distilled water every half hour to ensure humidity and prevent wilting. To determine variations in basal levels of the AtproPep1 transcript among assays, four different leaves from four different plants were used for each treatment, and leaves supplied with either water or AtPep1 were taken from the same plants. Assays were terminated by immersing the leaves in liquid nitrogen.
Semi-quantitative RT-PCR analysis of relative gene expression levels. RNA was isolated using Trizol reagent and manufacturer's instructions (Invitrogen. Carlsbad Calif.), and 2 μg of RNA template was reverse transcribed with a RETROscript kit (Ambion, Austin Tex.). PCR reactions were carried out with ExTaq Hot Start polymerase and reagents (Fisher Scientific, Pittsburgh Pa.). The AtproPep1 forward and reverse primers with the respective sequences of 5′ […] 3′ (SEQ ID NO: 59) and 5′ […] 3′ (SEQ ID NO: 60) generated a 310 bp intron-spanning product. Primers to β-tubulin (At5g62690) of 5′ […] 3′ (SEQ ID NO: 73) and 5′ […] 3′ (SEQ ID NO: 74) generated a 681 base pair intron-spanning product. An initial denaturing/polymerase activating step of 5 minutes at 94° C. was followed by 31 repetitions of the following three steps: a thirty second denaturation phase at 94° C., a thirty second annealing period at 55.5° C., and a one minute elongation step at 72° C. The amplification program was terminated with a 10 minute final 72° C. elongation phase.
The products of each reaction were separated by electrophoresis and were visualized on a Bio Imaging System (SynGene, Frederick Md.) using GeneSnap version 6.00.26 software (SynGene, Frederick Md.). A high resolution image of the gel was analyzed using GeneTools analysis software version 3.02.00 (SynGene, Frederick Md.). Relative band intensities for each band were normalized to the β-tubulin band. A numerical ratio of amplified AtproPep1 cDNA to amplified tubulin cDNA was obtained for every sample. To calculate average values, semi-quantitative RT-PCR assays were performed in duplicate, and RNA extractions were performed in triplicate.
Analysis of gene expression using RT-PCR. Gene expression was analyzed using RT-PCR (Nishimura et al., Plant Cell 16:1365-1377, 2004).
Expression analysis of AtproPep1 in response to abiotic and biotic cues. As a first step in seeking a possible function for AtproPep1 and its encoded peptide, the basal expression level of the gene was assessed in leaves, stems, roots and flowers of Arabidopsis plants was studied using semi-quantitative RT-PCR analysis of AtproPep1 gene expression in response to treatment of leaves with MeJA, ethephon, MeSA, and AtPep1. The relative abundance of the proAtPep1 transcript was estimated from the expression of the β-tubulin gene as a control. Leaves were wounded by crushing once across the mid-vein with a hemostat. Plants were sprayed with a 250 μM solution of MeJA in 0.1% Triton X-100; with a 2 μM solution of MeSA in 0.1% Triton X-100 or with a 7 mM solution of ethephon in 0.1% Triton X-100. AtPep1 peptide (10 nM in water) was supplied through cut petioles of excised leaves. Total RNA was extracted and analyzed.
In order to determine whether AtPep1 regulates defense gene expression, we determined the fold induction of defense related genes in excised Arabidopsis leaves in response to 10 nM AtPep1 supplied through their cut petioles. […]

[2] = test system: wild type tobacco suspension-cultured cells; assay: Medium alkalinization of wild type and GUS expressing tobacco cells; assay type: cell-based; settings: wild type tobacco (b358 also GUS expressing) cells
[3] = test system: AtPEPR1 and AtPEPR2 transcripts; assay: Expression analysis of AtPEPR1 and AtPEPR2 (Northern hybridization, quantitative RT-PCR); assay type: in vivo, Arabidopsis thaliana; settings: within 30 min
Experimental: Expression analysis of AtPEPR1 and AtPEPR2. […] In order to elucidate the role of AtPEPR2 in AtPeps signal transduction, the gene expression patterns were analyzed in comparison with AtPEPR1.

[4] = test system: AtproPep1, MPK3 and WRKY gene expression; assay: Marker gene induction in two-week-old seedlings grown in liquid medium (RT-PCR, qRT-PCR); assay type: in vivo, Arabidopsis thaliana
Experimental: Using AtproPep1 and MPK3 as marker genes, the response to AtPep1 of the T-DNA insertional mutants was analyzed. […] […]1 and […]2 mutants are unable to respond to AtPEP1. To further examine the importance of […]1 and […]2 in AtPep1 signaling, the expression level of WRKY transcription factor genes, WRKY22, WRKY29, WRKY33. WRKY53 and WRKY55, were monitored by qRT-PCR after supplying AtPep1 to wild type Arabidopsis and T-DNA insertional mutants of […]1 and […]2. These WRKY genes were reported to be induced by the fungal PAMP, chitin (Wan et al., Plant Cell 20: 471-481, 2008), and the bacterial PAMPs, […] et al., Cell 125:749-760, 2006). […] In the double mutants, […] […] We also examined the effect of supplying AtPep1 to the double mutants on the expression of the antimicrobial protein genes, defensin (PDF1.2) and pathogenesis related protein (PR-1) […] peptides are known to induced these genes (Huffaker and Ryan, Proc. Natl. Acad. Sci. USA 104: 10732-10736, 2007). Since the expression levels of PDF1.2 and PR-1 gene in Arabidopsis seedlings grown in liquid medium were already high, the method of supplying AtPep1 was changed. Four-week-old Arabidopsis plants grown in soil were sprayed with 1 μM AtPep1 in 0.01% Silwet L-77, and subjected to qRT-PCR analysis after 6 hours.

With H-ATKVKAKQRGKEKVSSGRPGQHN-OH [AtPep1] the “expression of the AtproPep1 gene” value ([1]; 10 nM through cut petioles of excised leaves, within two hours) was “induced expression”, the “expression of PDF1.2 and PR-1” value ([1]; 10 nM through cut petioles, 2 hr, wild type) was “most strongly expressed; also recorded: induced a strong expression” and the “expression of AtproPep1, PDF1.2 or PR-1 in mutants” value ([1]; 10 nM, 2 hr, triple mutant fad3-2, fad7-2, fad8 and mutant ein2-1) was “did not induce”. The “expression of LOX2 and VSP2” value ([1]; 10 nM, two hours, wild type) was “not induced”, the “expression of PR-3, PR-4 and TAT” value ([1]; 10 nM, two hours, wild type) was “expressed at lower levels” and the “expression of At5g64905, At5g64900, At5g64890 and At5g09980” value ([1]; supplied through cut petioles of excised leaves) was “expressed relatively strongly”. The “alkalinization of the medium” value [2] was “no alkalinization was detected; also recorded: did not respond”, the “induction of AtPEPR1 and AtPEPR2 transcripts” value [3] was “strong inducer” and the “response (AtproPep1, MPK3) in double mutants of AtPEPR1 and AtPEPR2” value ([4]; 10 nM for 30 min) was “completely lost the response”. For the same substance, the “response (AtproPep1, MPK3) in AtPEPR2 mutants” value ([4]; 10 nM for 30 min, SALK_036564 and SALK_004447) was “did not show the clear reduction”, the “reduction of AtproPep1 and MPK3 induction in AtPEPR1 mutants” value ([4]; 10 nM for 30 min, SALK_059281 and SALK_014538) was over 50% and the “WRKY responses in double mutants pepr1-1/pepr2-1 and pepr1-2/pepr2-2” value ([4]; 10 nM, 30 min) was “completely abolished”. For the same substance, the “lower induction of WRKY genes in pepr1-1 and pepr1-2” value ([4]; 10 nM, 30 min) was 50% and the “induction of WRKY33, WRKY53, WRKY22, WRKY29 and WRKY55” value ([4]; 10 nM, 30 min, wild type) was “highly induced”.

From patent US8686224B2, “Plant defense signal peptides” (priority 2005, dated 2014)
